{
  "source": "patent US20040014217A1",
  "about": "“Methods of transfection” (priority 2000, published 2004)",
  "key": {"[1]": {"test_system": "Human airway epithelial (HAE) cells", "experiment": "BrdU labelling of HAE cells, Example 13", "format": "cell-based", "procedure": "Bromodeoxyuridine (BrdU) labelling enables assessment of cell proliferation. BrdU kits are available from Zymed Laboratories, Inc., South San Francisco, Calif., U.S.A. BrdU was added to the cells at the same time as the transfection reagent and was maintained throughout the rest of the experiment until cell harvesting."}, "[2]": {"test_system": "1HAEo-cells", "experiment": "BrdU incorporation by flow cytometry, 1HAEo- cells", "format": "cell-based, human", "details": "EGTA 2 mM, aphidicolin 10 μg/ml where present", "procedure": "A BrdU Labelling and Detection Kit (Roche, Basel, Switzerland) was used, which contains the BrdU labelling reagent and the monoclonal mouse anti-BrdU. […] Cells were washed with PBS and incubated with a second layer antibody, Texas Red labelled horse anti-mouse IgG (Vector Laboratories, Peterborough, UK), for 30 minutes at 37° C. and then analysed by flow cytometry at the wavelength of 575±20 nm as detailed above. In some experiments, aphidicolin, a cell-proliferation inhibitor blocking the cell cycle in S-phase, was added to the cells to observe the effects on transfection efficiency."}, "[3]": {"test_system": "integrins", "details": "cited from earlier work"}, "[4]": {"test_system": "ECV304 cells", "experiment": "Luciferase (pGL2) transfection of ECV304 cells", "format": "cell-based, human", "details": "LID complexes, 40 μg total [K]16-peptide; luciferase after 48 hours", "procedure": "Cells were seeded into 24-well plates at 5×10^4 cells per well then incubated overnight at 37° C. in complete growth medium. The following day, transfection complexes were made from the following stock solutions, all prepared in OptiMEM (Life Technologies, Paisley, U. K.), lipofectin (an equimolar mixture of the cationic lipid N-[1-(2,3-dioleyloxy)propyl]-N,N,N-trimethylammonium chloride (DOTMA) and the neutral lipid dioleoyl phosphatidylethanolamine (DOPE), obtained as “Lipofectin” from Life Technologies, Paisley, U.K.) (1 mg/ml), pGL2-control (1 mg/100 ml) and [K]16]/integrin-targeting peptide 1, 5 or 6 (0.1 mg/ml).\nComplexes were made usually with three components: oligolysine-peptide (I), plasmid DNA or RNA (D) and lipofectin (L), by mixing together the different components with an automatic pipette. […]\nCells transformed with pGL2 were washed twice with PBS to remove serum then 100 microlitres of Reporter Lysis Buffer (Promega, Madison, Wis, U.S.A.) was added to each well and placed at […] for 15 to 30 minutes. […] Total light emission was measured for 60 seconds on an LKB 1251 Luminometer (Labtech, Uckfield, U.K.). The protein concentration of each sample was then determined with Protein Assay Reagent (BioRad, Hercules, Calif., U.S.A.) and luciferase enzyme activity expressed in terms of relative light units per milligram of protein (RLU/mg). […]"}, "[5]": {"test_system": "human lung fibroblasts (HFL-1 cells)", "experiment": "Thrombin-induced proliferation of HFL-1 cells after antisense (PAR-1) transfection", "format": "cell-based", "procedure": "Thrombin stimulates proliferation of human lung fibroblasts. Thrombin-treated human lung fibroblasts (HFL-1 cells) proliferated 53% in response to thrombin. 24 hours before treatment with thrombin, HFL-1 cells were treated with an LID complex comprising [K]16-peptide 6, lipofectin and a 20-mer antisense oligonucleotide directed against the thrombin receptor PAR-1 in the optimal ratio and mixing order prepared as described in the Materials and Methods section and the Examples above. The antisense oligonucleotide-containing complex was in contact with the cells for 4 hours. 24 hours after the start of the treatment with the complex, treatment with thrombin was carried out."}},
  "data": [
    {"molecule": "O=c1[nH]c(=O)n([C@H]2C[C@H](O)[C@@H](CO)O2)cc1Br", "note": "[BrdU, 5-Bromo-2′-deoxy-uridine]", "values": [
      {"measurement": "BrdU labelling, Confluent cells", "setting": "[1]", "result": 7.1, "unit": "%"},
      {"measurement": "BrdU labelling, Sub-confluent cells", "setting": "[1]", "result": 44.4, "unit": "%"},
      {"measurement": "BrdU-positive cells, confluent 1HAEo- cells", "setting": "[2]", "result": 7.1, "unit": "%"},
      {"measurement": "BrdU-positive cells, sub-confluent 1HAEo- cells", "setting": "[2]", "result": 43.0, "unit": "%"}
    ]},
    {"molecule": "C[C@@]1(CO)[C@H](O)CC[C@@]2(C)[C@H]1CC[C@H]1C[C@@H]3C[C@@]12CC[C@]3(O)CO", "note": "[aphidicolin, Aphidicolin]", "values": [
      {"measurement": "BrdU-positive cells, confluent 1HAEo- cells", "setting": "[2]", "result": 5, "unit": "%"},
      {"measurement": "BrdU-positive cells, sub-confluent 1HAEo- cells", "setting": "[2]", "result": 7, "unit": "%"}
    ]},
    {"molecule": "GACDCRGDCFCA [Peptide 5]", "values": [
      {"measurement": "integrin specificity", "setting": "[3]", "result": "(αv)"}
    ]},
    {"molecule": "[K]16GACRRETAWACG (KKKKKKKKKKKKKKKKGACRRETAWACG) [oligolysine-peptide 6]", "values": [
      {"measurement": "transfection efficiency with increasing amounts of oligolysine-peptide 6 replacing [K]16", "setting": "[4]", "result": "apparently exponential increase"}
    ]},
    {"molecule": "thrombin", "values": [
      {"measurement": "proliferation in response to thrombin", "setting": "[5]", "result": 53, "unit": "%"}
    ]}
  ]
}
